Patent publication US20050159352A1, “Use of monocarboxylate transporter protein for thyroid hormone transport” (priority 2002, published 2005)
Like-named read-outs stand apart in the source and are kept apart here.

Legend:
rat oatp1 = target: T1, rat oatp1 (Rattus norvegicus, UniProt P46720); conditions: literature (10); read-out: Apparent Km values for rat oatp1; cited from earlier work
T1 sequence (P46720 1-670): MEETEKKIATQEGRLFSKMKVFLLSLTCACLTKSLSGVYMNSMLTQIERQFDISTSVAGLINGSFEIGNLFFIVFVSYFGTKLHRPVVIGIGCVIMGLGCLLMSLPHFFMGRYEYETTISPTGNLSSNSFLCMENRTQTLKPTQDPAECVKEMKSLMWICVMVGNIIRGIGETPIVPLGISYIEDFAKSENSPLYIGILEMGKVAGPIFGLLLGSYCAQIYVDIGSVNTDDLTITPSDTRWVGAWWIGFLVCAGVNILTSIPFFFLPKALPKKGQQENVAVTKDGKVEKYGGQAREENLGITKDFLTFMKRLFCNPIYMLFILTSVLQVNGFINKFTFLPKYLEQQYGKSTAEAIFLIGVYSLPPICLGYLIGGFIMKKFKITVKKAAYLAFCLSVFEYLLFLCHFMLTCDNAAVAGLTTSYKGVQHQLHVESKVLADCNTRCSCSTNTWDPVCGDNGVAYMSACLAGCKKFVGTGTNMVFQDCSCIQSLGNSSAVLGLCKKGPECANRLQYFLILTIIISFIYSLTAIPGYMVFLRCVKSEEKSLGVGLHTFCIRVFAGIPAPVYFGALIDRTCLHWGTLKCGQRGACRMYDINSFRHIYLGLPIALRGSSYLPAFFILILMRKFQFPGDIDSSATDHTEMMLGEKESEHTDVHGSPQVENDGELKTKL

MCT8 [1] = target: T2, MCT8 (Rattus norvegicus, UniProt Q8K1P8); assay: Inhibition of uptake of labeled T4 and T3 in MCT8 cRNA-injected oocytes by putative competitors; type: cell-based; conditions: labeled T3 10 nm, MCT8 cRNA-injected oocytes
T2 construct: the stop codon of MCT8 was removed by performing PCR using the same sense primer as above; expressed in transfected cells; host or cells: Xenopus laevis oocytes injected with cRNA transcribed from pGEM-HeJuel
T2 sequence (Q8K1P8 whole entry I169T/T171I/S199P/G227D): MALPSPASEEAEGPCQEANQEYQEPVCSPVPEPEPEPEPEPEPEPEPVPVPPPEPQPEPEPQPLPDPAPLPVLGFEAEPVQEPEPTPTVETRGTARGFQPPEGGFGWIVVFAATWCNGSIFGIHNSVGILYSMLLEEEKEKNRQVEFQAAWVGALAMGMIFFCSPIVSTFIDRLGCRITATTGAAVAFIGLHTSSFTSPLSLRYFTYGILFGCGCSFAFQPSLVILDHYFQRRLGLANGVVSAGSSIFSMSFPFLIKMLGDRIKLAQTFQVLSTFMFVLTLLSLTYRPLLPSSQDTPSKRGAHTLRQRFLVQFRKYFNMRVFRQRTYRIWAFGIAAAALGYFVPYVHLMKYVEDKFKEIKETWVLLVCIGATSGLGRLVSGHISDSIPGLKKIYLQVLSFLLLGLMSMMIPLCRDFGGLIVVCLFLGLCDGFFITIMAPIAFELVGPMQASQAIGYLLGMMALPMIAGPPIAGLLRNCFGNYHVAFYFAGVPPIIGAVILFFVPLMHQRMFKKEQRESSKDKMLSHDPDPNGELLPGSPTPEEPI
Method: (§1) Oocytes were isolated and allowed to recover overnight at 18 C in modified Barth's solution containing 20 IU/ml penicillin and 20 gg/ml streptomycin as described before (23). […] Uninjected or water injected oocytes were used as controls.
(§2) Transport measurements in oocytes—Oocytes were washed and preincubated at 18 C in standard uptake solution (100 mM NaCl, 2 mM KCl, 1 mM CaCl2, 1 mM MgCl2, 10 mM HEPES, and 10 mM Tris, pH 7.5). […] The possible Na^+ dependence of transport was tested by preincubation and incubation in Na^+-free uptake solution in which NaCl was replaced by choline chloride. The influence of the temperature on the uptake rate was tested by the incubation of oocytes with uptake solutions at different temperatures between 4 and 37 C. […] The incubation was stopped by aspiration of the medium, and oocytes were washed 4 times at 4 C with standard uptake solution containing 0.1% BSA.

MCT8 [2] = target: T3, MCT8 (Rattus norvegicus, UniProt Q8K1P8, G227D/I169T/S199P/T171I); assay: as above; type: cell-based; parameters: the stop codon of MCT8 was removed by performing PCR using the same sense primer as above; expressed in transfected cells; host or cells: Xenopus laevis oocytes injected with cRNA transcribed from pGEM-HeJuel; conditions: for Inhibition of labeled T4 and T3 uptake by MCT8 (in words): unlabeled competitor, taurocholate and probenecid data not shown
T3 sequence (Q8K1P8 whole entry I169T/T171I/S199P/G227D): as above
Method: as §1, §2

MCT8 [3] = target: T3, MCT8; assay: Transport (uptake) of radioactive ligands by MCT8 expressed in X. laevis oocytes; type: cell-based; parameters: the stop codon of MCT8 was removed by performing PCR using the same sense primer as above; expressed in transfected cells; host or cells: Xenopus laevis oocytes injected with cRNA transcribed from pGEM-HeJuel; conditions: 10 nM iodothyronines or amino acids; MCT8 cRNA-injected vs uninjected oocytes
Method: Xenopus oocytes were isolated and injected with 4.6 ng rat MCTS cRNA. After 3 days, groups of 10 injected or uninjected oocytes were incubated for 60 mm at 25 C with 10 nM radioactive iodothyronines in 0.1 ml medium. Uptake of iodothyronines was determined as previously described (18).
as §1
Transport measurements in oocytes—Oocytes were washed and preincubated at 18 C in standard uptake solution (100 mM NaCl, 2 mM KCl, 1 mM CaCl2, 1 mM MgCl2, 10 mM HEPES, and 10 mM Tris, pH 7.5). Usually, transport was tested by incubation of groups of 5-10 oocytes for 2-60 mm at 25 C with 10 nM [1251]iodothyronines or 10 μM [3H]amino acids in 0.1 ml standard uptake solution. The possible Na^+ dependence of transport was tested by preincubation and incubation in Na^+-free uptake solution in which NaCl was replaced by choline chloride. The influence of the temperature on the uptake rate was tested by the incubation of oocytes with uptake solutions at different temperatures between 4 and 37 C. […] The incubation was stopped by aspiration of the medium, and oocytes were washed 4 times at 4 C with standard uptake solution containing 0.1% BSA.

rat MCT1 = target: T4, rat MCT1 (Rattus norvegicus, UniProt P53987); conditions: data not shown
T4 sequence (P53987 1-494): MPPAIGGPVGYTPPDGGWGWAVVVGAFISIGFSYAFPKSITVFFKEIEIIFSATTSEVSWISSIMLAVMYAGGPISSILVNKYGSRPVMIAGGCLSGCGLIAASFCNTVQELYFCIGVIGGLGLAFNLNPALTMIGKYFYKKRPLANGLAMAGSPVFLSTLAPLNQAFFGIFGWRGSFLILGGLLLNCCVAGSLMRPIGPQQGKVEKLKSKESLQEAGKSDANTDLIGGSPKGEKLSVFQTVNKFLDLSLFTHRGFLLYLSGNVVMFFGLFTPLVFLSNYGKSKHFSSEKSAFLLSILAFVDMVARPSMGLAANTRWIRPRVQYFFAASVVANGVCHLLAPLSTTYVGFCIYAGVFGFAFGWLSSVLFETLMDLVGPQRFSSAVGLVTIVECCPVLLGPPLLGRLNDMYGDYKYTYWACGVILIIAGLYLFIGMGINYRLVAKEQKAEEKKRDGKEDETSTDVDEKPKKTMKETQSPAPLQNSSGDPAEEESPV

MCT8 [4] = target: T3, MCT8; assay: Uptake and metabolism (sulfation) of rT3 in MCT8 cRNA-injected oocytes; type: cell-based; parameters: the stop codon of MCT8 was removed by performing PCR using the same sense primer as above; expressed in transfected cells; host or cells: Xenopus laevis oocytes injected with cRNA transcribed from pGEM-HeJuel; conditions: 10 nM rT3, 2-60 min, 25 C
Method: Analysis of rT3 metabolism in oocytes—Groups of 10 oocytes were incubated for 2-60 mm at 25 C with 10 nM ['25IIrTa. After incubation, medium was collected, and 2 groups of 5 oocytes were counted separately and homogenized in 0.1 ml 0.1 M NaOH as described before (25). Lysates were cleared by centrifugation. Lysates (in duplicate) and incubation media were acidified with 0.1 M HCl and analyzed by Sephadex LH-20 chromatography (21). The different products were successively eluted with 0.1 M HCl (iodide), water (conjugates), and 1% NH4OH in ethanol (iodothyronines).
Metabolism of rT3—Previous studies have shown that X. laevis oocytes actively metabolize rT3 by sulfation. Since sulfotransferases are located intracellularly, we have used this property to investigate rT3 internalization by oocytes. […] At several time points, uninjected and MCT8 cRNA-injected oocytes are homogenized, and the homogenates and medium samples are analyzed for rT3 and rT3 sulfate (rT3S) content. It is shown that already after 2 mm of incubation, rT3S is formed intracellularly in the MCT8 cRNA-injected oocytes. After 10 mm of incubation, release of rT3S into the medium is observed. The production rate of rT3S is much higher in MCT8 cRNA-injected oocytes than in uninjected cells.

MCT8 [5] = target: T3, MCT8; assay: Transport kinetics of MCT8-mediated iodothyronine uptake in oocytes (Michaelis-Menten); parameters: dose or concentration left out as unconfirmed; conditions: net transport
Method: Apparent Km values were calculated by fitting the plot of uptake rate (v) versus ligand concentration (5) to the Michaelis Menten equation: v=Vmax/(1+Km/S), wherein Vmax is the maximum uptake rate, and Km the Michaelis constant. Calculations were performed using the Slide Write Plus program version 5.01 (Advanced Graphics Software).

[6] = labeled T4 10 nm, inhibitor 100 μM, MCT8 cRNA-injected oocytes
[7] = labeled T4 10 nm, inhibitor 10 μM, MCT8 cRNA-injected oocytes

SMILES	Inhibition of labeled T4 and T3 uptake by MCT8 (in words) (MCT8 [2])	Substrate specificity: transport by MCT8 (in words) (MCT8 [3])	further results
O=C1OC(c2ccc(O)c(S(=O)(=O)O)c2)(c2ccc(O)c(S(=O)(=O)O)c2)c2c(Br)c(Br)c(Br)c(Br)c21 [BSP, bromosulfophthalein]	potent inhibitor	–	Km (rat oatp1): 1.5 µM; % inhibition ± SEM of uptake of T3 (MCT8 [1]; inhibitor 100 μM): 81 ± 1%; % inhibition ± SEM of uptake of T4 (MCT8 [2]; [6]): 94 ± 2%
O=C(CBr)N[C@@H](Cc1cc(I)c(Oc2ccc(O)c(I)c2)c(I)c1)C(=O)O [BrAcT3, N-bromoacetyl-3,3′,5-triiodothyronine]	potently inhibited	–	inhibition at 10 µM (MCT8 [2]; labeled T4 10 nm, inhibitor 10 μM, MCT8 cRNA-injected oocytes, read-out: % inhibition ± SEM of uptake of T4): 90 ± 3%; inhibition at 10 µM (MCT8 [2]; read-out: % inhibition ± SEM of uptake of T3): 67 ± 1%
N[C@H](Cc1cc(I)c(Oc2ccc(O)c(I)c2)c(I)c1)C(=O)O [D-T3]	potently inhibited	–	% inhibition ± SEM of uptake of T3 (MCT8 [1]; inhibitor 10 μM): 24 ± 5%; % inhibition ± SEM of uptake of T4 (MCT8 [2]; [7]): 72 ± 3%
N[C@@H](Cc1ccc(Oc2ccc(O)c(I)c2)c(I)c1)C(=O)O [T2, 3,3′-diiodothyronine]	–	rapid uptake	–
NS(=O)(=O)O [T4NS]	–	not transported	–
N[C@@H](Cc1cc(I)c(Oc2cc(I)c(OS(=O)(=O)O)c(I)c2)c(I)c1)C(=O)O [T4S]	–	not transported	–
N[C@@H](Cc1ccc(Oc2cc(I)c(O)c(I)c2)c(I)c1)C(=O)O [rT3, 3,3′,5′-triiodothyronine]	–	rapid uptake	Production rate of rT3S in MCT8 cRNA-injected oocytes versus uninjected cells (MCT8 [4]): much higher; Saturability of transport by MCT8 (MCT8 [5]): saturable

Further lines, with some results ahead:

Inhibition of labeled T4 and T3 uptake by MCT8 (in words) (MCT8 [2])	Substrate specificity: transport by MCT8 (in words) (MCT8 [3])	SMILES	further results
potently inhibited	–	N[C@H](Cc1cc(I)c(Oc2cc(I)c(O)c(I)c2)c(I)c1)C(=O)O [D-T4]	% inhibition ± SEM of uptake of T3 (MCT8 [1]; inhibitor 10 μM): 21 ± 5%; % inhibition ± SEM of uptake of T4 (MCT8 [2]; [7]): 76 ± 7%
–	not transported	CC(C)C[C@H](N)C(=O)O [Leu]	–
–	not transported	N[C@@H](Cc1ccccc1)C(=O)O [Phe]	–
hardly affected	not transported	N[C@@H](Cc1c[nH]c2ccccc12)C(=O)O [Trp]	% inhibition ± SEM of uptake of T3 (MCT8 [1]; inhibitor 100 μM): 0 ± 7%; % inhibition ± SEM of uptake of T4 (MCT8 [2]; [6]): 22 ± 6%
hardly affected	not transported	N[C@@H](Cc1ccc(O)cc1)C(=O)O [Tyr]	% inhibition ± SEM of uptake of T3 (MCT8 [1]; inhibitor 100 μM): 0 ± 9%; % inhibition ± SEM of uptake of T4 (MCT8 [2]; [6]): 37 ± 6%
–	unable to demonstrate any transport	CC(O)C(=O)O (centres unmarked) [lactate]	Transport in rat MCT1 cRNA-injected oocytes compared to control oocytes (in words) (rat MCT1): greatly stimulated
weak effects	–	CCCN(CCC)S(=O)(=O)c1ccc(C(=O)O)cc1 [probenecid]	–
